Experiments:
[1] = molecular target: Serine/threonine-protein kinase D2 (Homo sapiens) (UniProt Q9BZL6); details: Compound concentration 1000.0 nM
[2] = molecular target: Serine/threonine-protein kinase haspin (Homo sapiens) (UniProt Q8TF76); details: Compound concentration 1000.0 nM
[3] = molecular target: cAMP-dependent protein kinase catalytic subunit beta (Homo sapiens) (UniProt P22694); details: Compound concentration 1000.0 nM
[4] = molecular target: Ephrin type-A receptor 4 (Homo sapiens) (UniProt P54764); details: Compound concentration 1000.0 nM
[5] = molecular target: Serine/threonine-protein kinase NLK (Homo sapiens) (UniProt Q9UBE8); details: Compound concentration 1000.0 nM
[6] = tested on: Tyrosine-protein kinase ABL1 (Homo sapiens), P00519 [E255K]; details: Compound concentration 1000.0 nM
[7] = molecular target: Tyrosine-protein kinase Mer (Homo sapiens) (UniProt Q12866); details: Compound concentration 1000.0 nM
[8] = molecular target: Serine/threonine-protein kinase tousled-like 1 (Homo sapiens) (UniProt Q9UKI8); details: Compound concentration 1000.0 nM
[9] = tested on: Receptor-type tyrosine-protein kinase FLT3 (Homo sapiens), P36888 [UNDEFINED MUTATION]; details: Compound concentration 1000.0 nM
[10] = molecular target: 5-hydroxytryptamine receptor 2B (Homo sapiens) (UniProt P41595); details: Compound concentration 10.0 uM
Sequence of 5-hydroxytryptamine receptor 2B (Homo sapiens) (P41595 whole entry, the tested form may be a part): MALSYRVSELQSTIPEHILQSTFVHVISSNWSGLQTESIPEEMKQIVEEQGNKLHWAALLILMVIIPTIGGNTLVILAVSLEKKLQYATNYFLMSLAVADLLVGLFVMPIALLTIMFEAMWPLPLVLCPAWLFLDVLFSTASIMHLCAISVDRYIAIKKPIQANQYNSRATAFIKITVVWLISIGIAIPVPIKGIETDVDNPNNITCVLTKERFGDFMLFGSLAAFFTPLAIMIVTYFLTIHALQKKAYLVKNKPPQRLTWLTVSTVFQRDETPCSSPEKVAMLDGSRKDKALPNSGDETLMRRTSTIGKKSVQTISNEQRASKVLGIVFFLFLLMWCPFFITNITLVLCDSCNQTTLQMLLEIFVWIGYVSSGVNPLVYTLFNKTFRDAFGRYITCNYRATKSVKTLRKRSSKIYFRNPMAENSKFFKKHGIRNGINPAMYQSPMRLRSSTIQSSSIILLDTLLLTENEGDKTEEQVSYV

[11] = molecular target: Phosphatidylinositol 4-phosphate 3-kinase C2 domain-containing subunit beta (Homo sapiens) (UniProt O00750); details: Compound concentration 1000.0 nM
[12] = molecular target: Transient receptor potential cation channel subfamily M member 6 (Homo sapiens) (UniProt Q9BX84); details: Compound concentration 1000.0 nM
[13] = molecular target: Serine/threonine-protein kinase SIK3 (Homo sapiens) (UniProt Q9Y2K2); details: Compound concentration 1000.0 nM
[14] = molecular target: Myosin light chain kinase 2, skeletal/cardiac muscle (Homo sapiens) (UniProt Q9H1R3); details: Compound concentration 1000.0 nM
[15] = molecular target: Receptor-type tyrosine-protein kinase FLT3 (Homo sapiens) (UniProt P36888); details: Compound concentration 1000.0 nM
[16] = molecular target: NT-3 growth factor receptor (Homo sapiens) (UniProt Q16288); details: Compound concentration 1000.0 nM
Sequence of NT-3 growth factor receptor (Homo sapiens) (Q16288 32-839 limits assumed): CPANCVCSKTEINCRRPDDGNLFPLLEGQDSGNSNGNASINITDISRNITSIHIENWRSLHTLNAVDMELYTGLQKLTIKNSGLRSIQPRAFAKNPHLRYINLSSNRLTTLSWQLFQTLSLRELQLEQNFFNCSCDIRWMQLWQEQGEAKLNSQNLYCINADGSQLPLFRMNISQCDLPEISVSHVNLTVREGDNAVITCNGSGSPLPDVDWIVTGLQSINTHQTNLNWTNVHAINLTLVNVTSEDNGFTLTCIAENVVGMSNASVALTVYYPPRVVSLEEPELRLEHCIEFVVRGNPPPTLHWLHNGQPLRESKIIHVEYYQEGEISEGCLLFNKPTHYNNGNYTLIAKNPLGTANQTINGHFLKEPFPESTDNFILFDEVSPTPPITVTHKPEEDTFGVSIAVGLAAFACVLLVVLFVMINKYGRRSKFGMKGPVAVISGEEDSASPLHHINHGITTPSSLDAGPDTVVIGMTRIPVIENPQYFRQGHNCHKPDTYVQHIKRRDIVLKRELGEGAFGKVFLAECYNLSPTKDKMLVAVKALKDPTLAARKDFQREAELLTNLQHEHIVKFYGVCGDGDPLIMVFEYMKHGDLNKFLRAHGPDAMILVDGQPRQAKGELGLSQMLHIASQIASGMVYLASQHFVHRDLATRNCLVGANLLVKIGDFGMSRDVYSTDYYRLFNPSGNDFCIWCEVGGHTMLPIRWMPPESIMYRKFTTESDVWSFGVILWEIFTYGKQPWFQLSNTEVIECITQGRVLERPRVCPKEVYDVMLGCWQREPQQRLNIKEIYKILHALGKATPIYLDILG

[17] = molecular target: Serine/threonine-protein kinase 32B (Homo sapiens) (UniProt Q9NY57); details: Compound concentration 1000.0 nM
[18] = molecular target: Ephrin type-B receptor 3 (Homo sapiens) (UniProt P54753); details: Compound concentration 1000.0 nM
[19] = molecular target: SRSF protein kinase 1 (Homo sapiens) (UniProt Q96SB4); details: Compound concentration 1000.0 nM
[20] = molecular target: Aurora kinase A (Homo sapiens) (UniProt O14965); details: Compound concentration 1000.0 nM
[21] = molecular target: Rhodopsin kinase GRK7 (Homo sapiens) (UniProt Q8WTQ7); details: Compound concentration 1000.0 nM
[22] = molecular target: Ribosomal protein S6 kinase alpha-3 (Homo sapiens) (UniProt P51812); details: Compound concentration 1000.0 nM
[23] = molecular target: Mitogen-activated protein kinase 12 (Homo sapiens) (UniProt P53778); details: Compound concentration 1000.0 nM
Sequence of Mitogen-activated protein kinase 12 (Homo sapiens) (P53778 whole entry): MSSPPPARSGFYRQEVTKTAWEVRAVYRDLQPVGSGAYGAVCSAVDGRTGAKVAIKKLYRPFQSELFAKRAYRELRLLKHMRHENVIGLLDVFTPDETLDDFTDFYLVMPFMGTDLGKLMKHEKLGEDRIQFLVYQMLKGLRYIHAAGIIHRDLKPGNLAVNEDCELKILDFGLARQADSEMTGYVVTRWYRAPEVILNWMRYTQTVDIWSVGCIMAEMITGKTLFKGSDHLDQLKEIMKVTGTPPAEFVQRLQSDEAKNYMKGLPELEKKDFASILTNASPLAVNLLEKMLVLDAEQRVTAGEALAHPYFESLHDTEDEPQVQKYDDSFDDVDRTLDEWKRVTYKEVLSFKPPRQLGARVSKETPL

[24] = molecular target: T1, Alpha-1A adrenergic receptor (Homo sapiens) (UniProt P35348); details: Compound concentration 10.0 uM
T1 sequence (whole entry): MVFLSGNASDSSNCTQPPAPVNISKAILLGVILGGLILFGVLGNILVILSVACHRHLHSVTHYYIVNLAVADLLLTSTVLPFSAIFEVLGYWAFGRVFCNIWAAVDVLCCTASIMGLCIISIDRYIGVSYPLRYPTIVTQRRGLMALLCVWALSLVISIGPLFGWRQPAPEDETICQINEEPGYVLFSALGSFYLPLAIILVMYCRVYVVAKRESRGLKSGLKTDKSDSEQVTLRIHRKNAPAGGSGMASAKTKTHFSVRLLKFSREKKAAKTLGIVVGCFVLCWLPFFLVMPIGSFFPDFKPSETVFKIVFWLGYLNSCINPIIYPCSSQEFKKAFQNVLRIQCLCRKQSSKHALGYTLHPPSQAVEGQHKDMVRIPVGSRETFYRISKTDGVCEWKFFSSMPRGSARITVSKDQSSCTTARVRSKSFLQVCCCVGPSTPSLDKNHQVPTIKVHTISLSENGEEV

[25] = molecular target: Casein kinase I isoform epsilon (Homo sapiens) (UniProt P49674); details: Compound concentration 1000.0 nM
[26] = molecular target: Mitogen-activated protein kinase 1 (Homo sapiens) (UniProt P28482); details: Compound concentration 1000.0 nM
[27] = molecular target: Tyrosine-protein kinase JAK2 (Homo sapiens) (UniProt O60674); details: Compound concentration 1000.0 nM
[28] = molecular target: Beta-1 adrenergic receptor (Homo sapiens) (UniProt P08588); details: Compound concentration 10.0 uM
[29] = molecular target: Mitogen-activated protein kinase 8 (Homo sapiens) (UniProt P45983); details: Compound concentration 1000.0 nM
[30] = molecular target: Ephrin type-B receptor 1 (Homo sapiens) (UniProt P54762); details: Compound concentration 1000.0 nM
[31] = molecular target: Leukocyte tyrosine kinase receptor (Homo sapiens) (UniProt P29376); details: Compound concentration 1000.0 nM
[32] = molecular target: Serine/threonine-protein kinase WNK1 (Homo sapiens) (UniProt Q9H4A3); details: Compound concentration 1000.0 nM
Sequence of Serine/threonine-protein kinase WNK1 (Homo sapiens) (Q9H4A3 whole entry, looked up): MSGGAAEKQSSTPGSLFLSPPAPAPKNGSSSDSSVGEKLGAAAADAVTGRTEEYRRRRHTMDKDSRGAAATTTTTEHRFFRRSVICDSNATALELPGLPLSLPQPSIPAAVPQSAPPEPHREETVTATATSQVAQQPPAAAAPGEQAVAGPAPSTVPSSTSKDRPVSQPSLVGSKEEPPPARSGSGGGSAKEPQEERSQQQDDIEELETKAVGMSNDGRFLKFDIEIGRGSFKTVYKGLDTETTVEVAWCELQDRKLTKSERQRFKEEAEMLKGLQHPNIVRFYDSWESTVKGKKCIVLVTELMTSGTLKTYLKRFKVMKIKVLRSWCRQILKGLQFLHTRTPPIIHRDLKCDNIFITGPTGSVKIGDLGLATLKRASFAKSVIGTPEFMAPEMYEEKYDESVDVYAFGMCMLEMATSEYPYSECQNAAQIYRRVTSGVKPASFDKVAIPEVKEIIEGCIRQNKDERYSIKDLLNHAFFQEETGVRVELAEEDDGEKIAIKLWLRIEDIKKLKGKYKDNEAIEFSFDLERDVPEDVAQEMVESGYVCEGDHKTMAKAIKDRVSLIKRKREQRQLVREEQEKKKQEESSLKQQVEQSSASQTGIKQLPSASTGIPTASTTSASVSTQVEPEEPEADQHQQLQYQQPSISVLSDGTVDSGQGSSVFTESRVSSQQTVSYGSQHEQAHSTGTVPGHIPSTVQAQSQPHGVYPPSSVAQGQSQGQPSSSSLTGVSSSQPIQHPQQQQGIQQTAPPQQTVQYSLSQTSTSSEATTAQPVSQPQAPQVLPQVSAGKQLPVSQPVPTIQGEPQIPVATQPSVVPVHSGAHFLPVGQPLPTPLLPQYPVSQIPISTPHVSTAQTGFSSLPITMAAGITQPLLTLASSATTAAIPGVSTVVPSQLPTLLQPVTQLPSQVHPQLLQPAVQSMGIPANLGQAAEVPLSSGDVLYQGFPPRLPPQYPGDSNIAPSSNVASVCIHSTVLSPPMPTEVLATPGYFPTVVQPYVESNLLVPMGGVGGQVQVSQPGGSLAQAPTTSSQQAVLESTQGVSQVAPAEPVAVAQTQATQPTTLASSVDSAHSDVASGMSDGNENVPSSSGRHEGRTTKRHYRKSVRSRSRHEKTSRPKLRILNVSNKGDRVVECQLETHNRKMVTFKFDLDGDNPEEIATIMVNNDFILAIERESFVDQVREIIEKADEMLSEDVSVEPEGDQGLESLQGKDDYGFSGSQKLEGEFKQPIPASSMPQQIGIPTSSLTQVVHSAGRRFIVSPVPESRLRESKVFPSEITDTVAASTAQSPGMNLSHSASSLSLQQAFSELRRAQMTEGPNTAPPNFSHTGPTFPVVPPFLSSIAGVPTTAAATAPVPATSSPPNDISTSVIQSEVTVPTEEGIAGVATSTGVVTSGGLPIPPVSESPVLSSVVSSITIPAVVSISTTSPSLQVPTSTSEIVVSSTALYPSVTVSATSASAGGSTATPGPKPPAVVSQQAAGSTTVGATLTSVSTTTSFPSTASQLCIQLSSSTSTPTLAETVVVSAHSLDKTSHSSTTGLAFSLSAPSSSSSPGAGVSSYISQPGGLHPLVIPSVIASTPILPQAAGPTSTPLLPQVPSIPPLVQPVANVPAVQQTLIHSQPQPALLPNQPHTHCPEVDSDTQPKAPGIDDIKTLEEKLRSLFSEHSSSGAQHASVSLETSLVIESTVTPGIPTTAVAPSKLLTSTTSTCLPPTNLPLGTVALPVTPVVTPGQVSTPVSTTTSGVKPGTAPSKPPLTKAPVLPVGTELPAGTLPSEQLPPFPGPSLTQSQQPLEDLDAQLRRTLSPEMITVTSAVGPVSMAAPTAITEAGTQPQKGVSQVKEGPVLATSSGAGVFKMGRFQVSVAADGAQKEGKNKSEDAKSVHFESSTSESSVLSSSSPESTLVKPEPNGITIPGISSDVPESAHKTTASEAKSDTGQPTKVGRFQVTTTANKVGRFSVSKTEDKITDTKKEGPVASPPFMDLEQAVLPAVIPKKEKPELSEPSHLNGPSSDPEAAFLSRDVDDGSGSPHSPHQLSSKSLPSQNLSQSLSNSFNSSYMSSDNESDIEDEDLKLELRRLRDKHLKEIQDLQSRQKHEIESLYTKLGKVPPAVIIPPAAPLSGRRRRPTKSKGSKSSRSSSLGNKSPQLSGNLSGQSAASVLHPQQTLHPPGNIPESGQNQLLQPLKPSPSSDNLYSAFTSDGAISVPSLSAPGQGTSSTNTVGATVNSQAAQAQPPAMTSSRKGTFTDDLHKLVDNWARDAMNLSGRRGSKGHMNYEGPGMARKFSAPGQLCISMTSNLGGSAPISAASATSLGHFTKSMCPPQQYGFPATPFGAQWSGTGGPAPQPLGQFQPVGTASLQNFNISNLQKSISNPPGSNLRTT

[33] = molecular target: Homeodomain-interacting protein kinase 3 (Homo sapiens) (UniProt Q9H422); details: Compound concentration 1000.0 nM
[34] = molecular target: Serine/threonine-protein kinase DCLK2 (Homo sapiens) (UniProt Q8N568); details: Compound concentration 1000.0 nM
[35] = molecular target: Calcium/calmodulin-dependent protein kinase type 1G (Homo sapiens) (UniProt Q96NX5); details: Compound concentration 1000.0 nM
[36] = molecular target: GABA-A receptor; anion channel (Rattus norvegicus) (UniProt O09028+P15431+P18506+P18508+P19969+P20236+P23574+P23576+P28471+P28473+P30191+P62813+P63079+P63138+Q91ZM7+Q9ES14); details: Compound concentration 10.0 uM
[37] = tested on: Epidermal growth factor receptor (Homo sapiens), P00533 [L858R]; details: Compound concentration 1000.0 nM
[38] = molecular target: Beta-2 adrenergic receptor (Homo sapiens) (UniProt P07550); details: Compound concentration 10.0 uM

Sequence of Serine/threonine-protein kinase D2 (Homo sapiens) (Q9BZL6 whole entry): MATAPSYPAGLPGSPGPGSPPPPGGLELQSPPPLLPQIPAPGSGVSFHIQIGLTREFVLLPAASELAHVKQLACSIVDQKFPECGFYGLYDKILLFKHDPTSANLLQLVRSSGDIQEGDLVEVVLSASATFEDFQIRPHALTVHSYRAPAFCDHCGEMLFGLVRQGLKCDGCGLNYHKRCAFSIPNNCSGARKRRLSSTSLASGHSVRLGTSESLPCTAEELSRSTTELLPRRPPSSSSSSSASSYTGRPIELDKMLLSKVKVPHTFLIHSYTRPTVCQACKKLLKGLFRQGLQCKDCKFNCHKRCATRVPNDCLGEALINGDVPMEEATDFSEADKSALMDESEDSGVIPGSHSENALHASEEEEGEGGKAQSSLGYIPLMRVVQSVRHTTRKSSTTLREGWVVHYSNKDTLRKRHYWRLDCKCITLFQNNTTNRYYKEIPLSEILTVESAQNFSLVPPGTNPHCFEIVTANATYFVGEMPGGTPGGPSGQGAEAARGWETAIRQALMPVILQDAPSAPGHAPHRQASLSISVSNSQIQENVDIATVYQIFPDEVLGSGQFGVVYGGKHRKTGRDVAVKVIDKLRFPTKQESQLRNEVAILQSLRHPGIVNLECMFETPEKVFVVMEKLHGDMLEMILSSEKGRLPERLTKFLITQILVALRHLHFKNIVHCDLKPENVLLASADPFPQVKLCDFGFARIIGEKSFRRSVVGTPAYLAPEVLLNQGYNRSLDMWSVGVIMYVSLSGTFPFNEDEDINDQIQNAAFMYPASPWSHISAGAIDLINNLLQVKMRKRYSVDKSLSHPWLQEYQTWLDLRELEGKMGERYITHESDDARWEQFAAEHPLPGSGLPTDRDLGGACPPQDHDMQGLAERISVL

CCC(=O)N[C@H]1CC[C@@H](C(=O)N(C)c2ccc(-c3nc4ccccc4o3)cc2)C1 [BI 99179]
residual activity [1]: 100% | residual activity [2]: 100% | residual activity [3]: 100% | residual activity [4]: 79% | residual activity [5]: 87% | residual activity [6]: 75% | residual activity [7]: 100% | residual activity [8]: 84% | residual activity [9]: 100% | inhibition [10]: 4.55% | residual activity [11]: 93% | residual activity [12]: 76% | residual activity [13]: 84% | residual activity [14]: 85% | residual activity [15]: 78% | residual activity [16]: 32% | residual activity [17]: 98% | residual activity [18]: 76% | residual activity [19]: 100% | residual activity [20]: 43% | residual activity [21]: 82% | residual activity [22]: 88% | residual activity [23]: 67% | inhibition [24]: 22.1% | residual activity [25]: 93% | residual activity [26]: 76% | residual activity [27]: 70% | inhibition [28]: -4.07% | residual activity [29]: 58% | residual activity [30]: 100% | residual activity [31]: 100% | residual activity [32]: 100% | residual activity [33]: 74% | residual activity [34]: 98% | residual activity [35]: 100% | inhibition [36]: 21.1% | residual activity [37]: 97% | inhibition [38]: 1.55%

CCC(=O)N[C@@H]1CC[C@H](C(=O)N(C)c2ccc(-c3nc4ccccc4o3)cc2)C1 [BI 99990]
residual activity [1]: 100% | residual activity [2]: 100% | residual activity [3]: 100% | residual activity [4]: 100% | residual activity [5]: 100% | residual activity [6]: 100% | residual activity [7]: 100% | residual activity [8]: 100% | residual activity [9]: 94% | inhibition [10]: 19.1% | residual activity [11]: 70% | residual activity [12]: 84% | residual activity [13]: 100% | residual activity [14]: 79% | residual activity [15]: 89% | residual activity [16]: 100% | residual activity [17]: 71% | residual activity [18]: 100% | residual activity [19]: 100% | residual activity [20]: 100% | residual activity [21]: 93% | residual activity [22]: 91% | residual activity [23]: 73% | inhibition [24]: 19.4% | residual activity [25]: 100% | residual activity [26]: 88% | residual activity [27]: 100% | inhibition [28]: -4.55% | residual activity [29]: 53% | residual activity [30]: 100% | residual activity [31]: 93% | residual activity [32]: 100% | residual activity [33]: 76% | residual activity [34]: 89% | residual activity [35]: 100% | inhibition [36]: 0.94% | residual activity [37]: 100% | inhibition [38]: 0.247%
